Results: patent US5900434A, “Method for inhibiting the production of interleukin-1 or tumor necrosis factor-α by administering acanthoic acid” (Korea Institute of Science and Technology, priority 1994, dated 1999)

Tests used:
[1] = tested on: human monocytes and macrophages; assay: Cytotoxicity on human monocytes and macrophages (MTT); format: cell-based; details: concentration lower than 10 μg/ml
Experimental: Normal human peripheral blood was heparin-treated and diluted with equal amount of Hank's balanced salt solution (HBSS: Ca^2+ and Mg^2+ free). The diluted blood was put into a centrifuge tube containing therein Ficoll-Hypaque(Sigma, St. Louis, Mo., U.S.A.) layer having a density of 1.077 piled up on Ficoll-Hypaque layer having a density of 1.119, and then centrifuged at 700×g for 30 minutes to obtain monocytes from the layer between Ficoll-Hypaque layer having a density of 1.077 and serum layer, and neutrophils from the layer between Ficoll-Hypaque layer having a density of 1.077 and that having a density of 1.119. The separated cells were washed twice with 4° C. HBSS(Ca^2+ and Mg^2+ free) and suspended in RPMI 1640 medium(Gibco, Grand Island, N.Y., U.S.A.) containing 10% fetal bovine serum(FBS, Hyclone, Logan, Utah, U.S.A.). The suspensions were added to the wells of 24-well incubation plate(Costar, Cambridge, Mass., U.S.A.) and incubated at 37° C. for 2 hours to obtain monocytes, macrophages and neutrophils. […] The cytotoxicity of acanthoic acid was determined by the following procedures. […] 100 μl each of acidified isopropanol(0.04N HCl in isopropanol) was added to the cells in each well to elute formazan produced by the living cells, and optical density (O.D.) was determined at 540 nm by using an ELISA reader (Titertek multiskan Mcc/340)(FIG. 1). […]

[2] = tested on: prostaglandin E2 (PGE2) synthesis; details: cited from earlier work
[3] = tested on: O2^- production in human neutrophils; assay: Production of O2^- in human neutrophils (PMA-stimulated); format: cell-based
Experimental: Normal human peripheral blood was heparin-treated and diluted with equal amount of Hank's balanced salt solution (HBSS: Ca^2+ and Mg^2+ free). The diluted blood was put into a centrifuge tube containing therein Ficoll-Hypaque(Sigma, St. Louis, Mo., U.S.A.) layer having a density of 1.077 piled up on Ficoll-Hypaque layer having a density of 1.119, and then centrifuged at 700×g for 30 minutes to obtain monocytes from the layer between Ficoll-Hypaque layer having a density of 1.077 and serum layer, and neutrophils from the layer between Ficoll-Hypaque layer having a density of 1.077 and that having a density of 1.119. The separated cells were washed twice with 4° C. HBSS(Ca^2+ and Mg^2+ free) and suspended in RPMI 1640 medium(Gibco, Grand Island, N.Y., U.S.A.) containing 10% fetal bovine serum(FBS, Hyclone, Logan, Utah, U.S.A.). The suspensions were added to the wells of 24-well incubation plate(Costar, Cambridge, Mass., U.S.A.) and incubated at 37° C. for 2 hours to obtain monocytes, macrophages and neutrophils. Inflammatory responses are known as a cascade reaction comprising the secretion of various cytokines, e.g., IL-1, from immune cells stimulated by various stimulants; production of phospholipase A2, lysosomal enzyme, reactive oxygen species, etc. by other immune cells stimulated by said cytokines; and damage of tissues induced by the above products(Pruzanski, W. and […]., Immunol. Today, 12, 143(1991)). The ability of acanthoic acid to block the inflammatory reactions was tested by measuring their inhibitory activity to the production of reactive oxygen species, i.e., H2 O2 and O2^-. For the purpose of measuring the amount of produced O2^-, neutrophils suspended in RPMI 1640 medium in a concentration of 1×10^6 cells/800 μl was added to a part of the wells of 24-well plate and 10 μg/ml of superoxide dismutase(SOD, Sigma) was added to the empty wells. The plate was stored at 37° C. for 2 minutes, and cytochrome C(3 mg/ml, Sigma) was added to the wells in a concentration of 100 μl/well. The cells were treated with 10, 20 and 50 μg/ml of acanthoic acid for an hour and reacted at 37° C. for 20 minutes by introducing 10^-7 PMA as a stimulant. The reaction was terminated by adding 1 mM N-ethylmaleimide(Sigma) to the wells and the culture was centrifuged at 1,600×g for 10 minutes to obtain a supernatant. The change of color of the supernatant caused by the reduction of cytochrome C was measured at 550 nm by using a UV-Visible spectrophotometer (Kontron Instrument, Milano, Italy). The amount of produced O2^- was represented by the concentration of SOD which can suppress the reduction of cytochrome C in 1×10^6 cells for 20 minutes, by employing the extinction coefficient of cytochrome C(E550 nm =1.83×10^4 […] cm^-1).

In the case of `C=C[C@@]1(C)CC=C2C(CCC3[C@](C)(C(=O)O)CCC[C@@]23C)C1` (single isomer, unassigned; (-)) [acanthoic acid, (-)-pimara-9(11),15-diene-19-oic acid], the cytotoxicity [1] is listed as “no cytotoxicity”, the “inhibition of prostaglandin E2 (PGE2) synthesis” value [2] is listed as “inhibit” and the inhibition at 50 µg/mL ([3]; Neutrophil, 50 μg/ml, PMA) is listed as 72%. It also gave an activity at 10 µg/mL ([3]; Neutrophil, 20 min, PMA + acanthoic acid 10 μg/ml, PMA = 100, read-out: Amount of produced reactive oxygen species, O2^- (% to the control group)) of 76.8%, an activity at 20 µg/mL ([3]; Neutrophil, 20 min, PMA + acanthoic acid 20 μg/ml, PMA = 100, read-out: Amount of produced reactive oxygen species, O2^- (% to the control group)) of 31.6% and an activity at 50 µg/mL ([3]; Neutrophil, 20 min, PMA + acanthoic acid 50 μg/ml, PMA = 100, read-out: Amount of produced reactive oxygen species, O2^- (% to the control group)) of 28.4%. The “Amount of produced reactive oxygen species, O2^-” value (“Amount” for short) ([3]; PMA + acanthoic acid 10 μg/ml) was 11.9 nM/20 min, the “Amount” value ([3]; PMA + acanthoic acid 20 μg/ml) was 4.9 nM/20 min and the “Amount” value ([3]; PMA + acanthoic acid 50 μg/ml) was 4.4 nM/20 min.
